Consider two compounds from patent US20200237909A1, “METHODS OF TREATING OR PREVENTING BREAST CANCER METASTASES USING ANTIBODIES TO JAGGED1 AND CHEMOTHERAPEUTIC AGENTS” (The Trustees of Princeton University, priority 2017, published 2020).

The test system of experiment [1] is SCP28. Nature of the experiment: Cleaved PARP and cleaved caspase-3 immunoblotting after cisplatin. The settings on record: SCP28 single-cultured cells, 72 hours post-treatment. In kind it is cell-based, human. The protocol: FIG. 7. Pro-survival effect of osteoblast Jagged1 on cancer cells can be blocked by 15D11. (A) 3-D tumorsphere culture of MCF7, SCP28, and SUM1315-M1B1 cells, alone or in co-cultured with osteoblast cells, were treated with indicated concentrations of cisplatin or docetaxel. Two days after the chemotherapy, the surviving tumor spheres were counted under the fluorescent microscope. n=3. *p<0.05 by Student's t-test. (B) Cell culture of SCP28 cells alone or in co-culture with MC3T3-E1 pre-osteoblast cells were treated with PBS control or cisplatin. Protein samples were collected at 6 hr, 24 hr, and 72 hr later. Cleaved PARP and cleaved caspase-3 were determined by immunoblotting. # marks full length PARP and * marks cleaved PARP. […] Hind limb bones were fixed and cryo-sectioned for IF staining against CC3 for apoptotic cells and GFP for tumor cells (E), and CC3 positive apoptotic cells among GFP-positive tumor cells were quantified in F. Size bar: 25 μm. n=5. **p<0.01 by Student's t-test. […] Tumor cells in the bone were quantified based on BLI imaging at Day 1 and Day 4. […]
To mimic chemoresistance and tumor seeding effects by osteoblast lineage cells in vitro, an in vitro 3D tumor-stroma co-culture assay (Wang et al., 2015) was adapted. […] Cleaved PARP and cleaved caspase-3 (CC3) status were analyzed by immuno-blotting at different time points after cisplatin treatment. […]
A general note: In western blotting, separated proteins are transferred to a membrane and probed.

Experiment [2] deals with Jagged1 expression. Nature of the experiment: Jagged1 mRNA expression in cell lines after chemotherapy agents. It is filed as cell-based. To be noted: 48 hr; for Jagged1 expression: MC3T3-E1 pre-osteoblast cells and MSCs, 25 nM paclitaxel or 10 μM cisplatin; for Jagged1 induction: endothelial cells, RAW 264.7 pre-osteoclasts, SCP28 and SUM1315-M1B1 tumor cells. How it is done:
FIG. 5. Chemotherapy induces Jagged1 expression in osteoblast lineage cells. (A) Jagged1 mRNA expression in osteoblast MC3T3-E1-Clone #4 osteoblast cells and mesenchymal stem cells (MSC), HPMECL endothelial cells (endo), RAW264.7 pre-osteoclast cells, and SCP28 and SUM1315-M1B1 breast tumor cells 48 hr post-treatment with 25 nM paclitaxel or 10 μM cisplatin. (B) Athymic nude mice were i.v. injected with PBS or cisplatin and euthanized 48 hr later. Hind limb bones were collected for IF staining against Alp (green) and Jagged1 (red). Nuclei were counter-stained with DAPI (blue). (C-E) Athymic nude mice were treated with either PBS or cisplatin on Day 0. One day after the pre-treatment, MCF7 (C), SUM1315-M1B1 (D) or SCP28 (E) cells were delivered locally to the hind limbs of these mice by IIA injection. BLI imaging and quantification of BLI signal at Day 4. (F) Mice from experiment in E were euthanized after BLI imaging at Day 4. Hind limbs were fixed and processed for IF imaging of GFP-expressing tumor cells (green) and ALP positive osteoblasts (red). Size bar: 80 μm. In A: n=3. *p<0.05 by Student's t-test. In C-E: n=5. *p<0.05 by Student's t-test. #: statistically insignificant.
The possibility that chemotherapy agents may induce Jagged1 expression in either tumor cells or in the bone stromal cells was considered. […] Key stromal cell types in bone metastasis include osteoclasts, osteoblasts and their progenitors (such as mesenchymal stem cells (MSCs)), and endothelial cells. Whether Jagged1 could be induced in these cells and various breast cancer cell lines upon treatment of two different chemotherapy agents, paclitaxel and cisplatin, which are commonly used in the treatment of breast cancer, was tested.
Total RNAs were isolated from cells using RNeasy kit (Qiagen) following manufacturer's instructions. RNAs were reverse transcribed into cDNAs by using Superscript III reverse transcription kit (Invitrogen). Real-time RT-PCR was performed on ABI 7900 96 HT series PCR machine (Applied Biosystem) using SYBR Green Supermix (Bio-Rad Laboratories). The gene-specific primer sets were used at a final concentration of 0.5 μM. All real-time RT-PCR assays were performed in duplicate in at least two independent experiments. Relative expression values of each target gene were normalized to GAPDH mRNA level.

Experiment [3] has as its system Notch downstream genes (human HES2, HEY1, HEY2). The experiment is described as follows: Notch downstream gene expression in tumor cells co-cultured with MSC after chemotherapy. It is filed as cell-based. To be noted: co-culture tumor cells after chemotherapy.

In the case of `N.N.[Cl][Pt][Cl]` [cisplatin], the “cleaved PARP and CC3” value in experiment [1] is “strong induction”. In experiment [2], the Jagged1 expression result was “significantly increased” and the Jagged1 induction result was “no significant induction”. The “Notch downstream genes HES2, HEY1, HEY2” value in experiment [3] was “significantly upregulated”.

Take `CC(=O)O[C@H]1C(=O)[C@@]2(C)[C@H]([C@H](OC(=O)c3ccccc3)[C@]3(O)C[C@H](OC(=O)[C@H](O)[C@@H](NC(=O)c4ccccc4)c4ccccc4)C(C)=C1C3(C)C)[C@]1(OC(C)=O)CO[C@@H]1C[C@@H]2O` [paclitaxel]: in experiment [2], the Jagged1 expression entry is listed as “significantly increased” and the Jagged1 induction result is reported as “no significant induction”.
